Measured values: US6613718B2, “Aryl ether derivatives and processes for their preparation and herbicidal and desiccant compositions containing them” (Ishihara Sangyo Kaisha, Ltd., priority 2001, dated 2003)

What was measured:
Type in all cases: in vivo
Settings in all cases: 14 days after application
[1] = test system: barnyardgrass (Echinochloa crus-galli, ECHCG); experiment: Pre-emerge greenhouse herbicide activity screening, phytotoxicity rating
In short: (§1)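 Pre-emerge: seeds sown 1 day before spray; acetone solutions, 15–1000 g ai/ha, track sprayer; soil watered after application, then bottom-watered. Post-emerge: plants at 2-3 leaf stage (sown 8-21 days prior), 0.25% v/v non-ionic surfactant added, bottom-watered only. Rated 0-100 at 14 DAA.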

[2] = test system: common ragweed (Ambrosia artemisiifolia L., AMBEL); experiment: as above
In short: as §1

[3] = test system: green foxtail (Setaria viridis, SETVI); experiment: as above
In short: as §1

[4] = test system: ivyleaf morningglory (Ipomoea hederacea, IPOHE); experiment: as above
In short: as §1

[5] = test system: johnsongrass (Sorghum halepense, SORHA); experiment: as above
In short: as §1

[6] = test system: lambsquarters (Chenopodium album, CHEAL); experiment: as above
In short: as §1

[7] = test system: large crabgrass (Digitaria sanguinalis, DIGSA); experiment: as above
In short: as §1

[8] = test system: redroot pigweed (Amaranthus retroflexus, AMARE); experiment: as above
In short: as §1

[9] = test system: sicklepod (Cassia obtusifolia, CASOB); experiment: as above
In short: as §1

[10] = test system: velvetleaf (Abutilon theophrasti, ABUTH); experiment: as above
In short: as §1

[11] = test system: field corn (Zea mays L., var. Dekalb 535, CORN); experiment: Pre-emerge greenhouse screening, crop safety (phytotoxicity rating)
In short: as §1

[12] = test system: soybean (Glycine max L., var. Pella 86, SOY); experiment: as above
In short: as §1

[13] = test system: upland rice (Oryza sp., var.Tebonnet, RICE); experiment: as above
In short: as §1

[14] = test system: barnyardgrass (Echinochloa crus-galli, ECHCG); experiment: Post-emerge greenhouse herbicide activity screening, phytotoxicity rating
In short: as §1

[15] = test system: common ragweed (Ambrosia artemisiifolia L., AMBEL); experiment: as above
In short: as §1

[16] = test system: green foxtail (Setaria viridis, SETVI); experiment: as above
In short: as §1

[17] = test system: ivyleaf morningglory (Ipomoea hederacea, IPOHE); experiment: as above
In short: as §1

[18] = test system: johnsongrass (Sorghum halepense, SORHA); experiment: as above
In short: as §1

[19] = test system: lambsquarters (Chenopodium album, CHEAL); experiment: as above
In short: as §1

[20] = test system: large crabgrass (Digitaria sanguinalis, DIGSA); experiment: as above
In short: as §1

[21] = test system: redroot pigweed (Amaranthus retroflexus, AMARE); experiment: as above
In short: as §1

[22] = test system: sicklepod (Cassia obtusifolia, CASOB); experiment: as above
In short: as §1

[23] = test system: velvetleaf (Abutilon theophrasti, ABUTH); experiment: as above
In short: as §1

[24] = test system: field corn (Zea mays L., var. Dekalb 535, CORN); experiment: Post-emerge greenhouse screening, crop safety / corn selectivity (phytotoxicity rating)
In short: as §1

[25] = test system: soybean (Glycine max L., var. Pella 86, SOY); experiment: Post-emerge greenhouse screening, crop safety (phytotoxicity rating)
In short: as §1

[26] = test system: upland rice (Oryza sp., var.Tebonnet, RICE); experiment: as above
In short: as §1

Cn1c(C(F)(F)F)cc(=O)n(-c2cc(Oc3ncccc3C(F)(F)F)c(Cl)cc2F)c1=S [Compound 1-15]
ECHCG phytotoxicity rating (0-100 scale) ([1]; 125 g ai/ha): 50 | ECHCG phytotoxicity rating (0-100 scale) ([1]; 250 g ai/ha): 65 | AMBEL phytotoxicity rating (0-100 scale) ([2]; 125 g ai/ha): 75 | AMBEL phytotoxicity rating (0-100 scale) ([2]; 250 g ai/ha): 90 | SETVI phytotoxicity rating (0-100 scale) ([3]; 125 g ai/ha): 100 | SETVI phytotoxicity rating (0-100 scale) ([3]; 250 g ai/ha): 100 | IPOHE phytotoxicity rating (0-100 scale) ([4]; 125 g ai/ha): 95 | IPOHE phytotoxicity rating (0-100 scale) ([4]; 250 g ai/ha): 100 | SORHA phytotoxicity rating (0-100 scale) ([5]; 125 g ai/ha): 60 | SORHA phytotoxicity rating (0-100 scale) ([5]; 250 g ai/ha): 98 | CHEAL phytotoxicity rating (0-100 scale) ([6]; 125 g ai/ha): 100 | CHEAL phytotoxicity rating (0-100 scale) ([6]; 250 g ai/ha): 100 | DIGSA phytotoxicity rating (0-100 scale) ([7]; 125 g ai/ha): 99 | DIGSA phytotoxicity rating (0-100 scale) ([7]; 250 g ai/ha): 100 | AMARE phytotoxicity rating (0-100 scale) ([8]; 125 g ai/ha): 100 | AMARE phytotoxicity rating (0-100 scale) ([8]; 250 g ai/ha): 100 | CASOB phytotoxicity rating (0-100 scale) ([9]; 125 g ai/ha): 55 | CASOB phytotoxicity rating (0-100 scale) ([9]; 250 g ai/ha): 85 | ABUTH phytotoxicity rating (0-100 scale) ([10]; 125 g ai/ha): 100 | ABUTH phytotoxicity rating (0-100 scale) ([10]; 250 g ai/ha): 100 | CORN crop damage, phytotoxicity rating (0-100 scale) ([11]; 125 g ai/ha): 8 | CORN crop damage, phytotoxicity rating (0-100 scale) ([11]; 250 g ai/ha): 8 | SOY crop damage, phytotoxicity rating (0-100 scale) ([12]; 125 g ai/ha): 0 | SOY crop damage, phytotoxicity rating (0-100 scale) ([12]; 250 g ai/ha): 35 | RICE crop damage, phytotoxicity rating (0-100 scale) ([13]; 125 g ai/ha): 0 | RICE crop damage, phytotoxicity rating (0-100 scale) ([13]; 250 g ai/ha): 0 | ECHCG phytotoxicity rating (0-100 scale) ([14]; 125 g ai/ha): 0 | ECHCG phytotoxicity rating (0-100 scale) ([14]; 250 g ai/ha): 0 | AMBEL phytotoxicity rating (0-100 scale) ([15]; 125 g ai/ha): 55 | AMBEL phytotoxicity rating (0-100 scale) ([15]; 250 g ai/ha): 55 | SETVI phytotoxicity rating (0-100 scale) ([16]; 125 g ai/ha): 0 | SETVI phytotoxicity rating (0-100 scale) ([16]; 250 g ai/ha): 0 | IPOHE phytotoxicity rating (0-100 scale) ([17]; 125 g ai/ha): 75 | IPOHE phytotoxicity rating (0-100 scale) ([17]; 250 g ai/ha): 100 | SORHA phytotoxicity rating (0-100 scale) ([18]; 125 g ai/ha): 0 | SORHA phytotoxicity rating (0-100 scale) ([18]; 250 g ai/ha): 0 | CHEAL phytotoxicity rating (0-100 scale) ([19]; 125 g ai/ha): 100 | CHEAL phytotoxicity rating (0-100 scale) ([19]; 250 g ai/ha): 100 | DIGSA phytotoxicity rating (0-100 scale) ([20]; 125 g ai/ha): 0 | DIGSA phytotoxicity rating (0-100 scale) ([20]; 250 g ai/ha): 0 | AMARE phytotoxicity rating (0-100 scale) ([21]; 125 g ai/ha): 90 | AMARE phytotoxicity rating (0-100 scale) ([21]; 250 g ai/ha): 90 | CASOB phytotoxicity rating (0-100 scale) ([22]; 125 g ai/ha): 60 | CASOB phytotoxicity rating (0-100 scale) ([22]; 250 g ai/ha): 65 | ABUTH phytotoxicity rating (0-100 scale) ([23]; 125 g ai/ha): 95 | ABUTH phytotoxicity rating (0-100 scale) ([23]; 250 g ai/ha): 95 | CORN crop damage, phytotoxicity rating (0-100 scale) ([24]; 125 g ai/ha): 5 | CORN crop damage, phytotoxicity rating (0-100 scale) ([24]; 250 g ai/ha): 5 | SOY crop damage, phytotoxicity rating (0-100 scale) ([25]; 125 g ai/ha): 10 | SOY crop damage, phytotoxicity rating (0-100 scale) ([25]; 250 g ai/ha): 10 | RICE crop damage, phytotoxicity rating (0-100 scale) ([26]; 125 g ai/ha): 0 | RICE crop damage, phytotoxicity rating (0-100 scale) ([26]; 250 g ai/ha): 0

Cn1c(C(F)(F)F)cc(=O)n(-c2cc(Oc3ccccc3O)c(C#N)cc2F)c1=S [Compound 1-70]
ECHCG phytotoxicity rating (0-100 scale) ([1]; 125 g ai/ha): 85 | ECHCG phytotoxicity rating (0-100 scale) ([1]; 250 g ai/ha): 95 | AMBEL phytotoxicity rating (0-100 scale) ([2]; 125 g ai/ha): 90 | AMBEL phytotoxicity rating (0-100 scale) ([2]; 250 g ai/ha): 99 | SETVI phytotoxicity rating (0-100 scale) ([3]; 125 g ai/ha): 75 | SETVI phytotoxicity rating (0-100 scale) ([3]; 250 g ai/ha): 100 | IPOHE phytotoxicity rating (0-100 scale) ([4]; 125 g ai/ha): 99 | IPOHE phytotoxicity rating (0-100 scale) ([4]; 250 g ai/ha): 99 | SORHA phytotoxicity rating (0-100 scale) ([5]; 125 g ai/ha): 65 | SORHA phytotoxicity rating (0-100 scale) ([5]; 250 g ai/ha): 99 | CHEAL phytotoxicity rating (0-100 scale) ([6]; 125 g ai/ha): 100 | CHEAL phytotoxicity rating (0-100 scale) ([6]; 250 g ai/ha): 100 | DIGSA phytotoxicity rating (0-100 scale) ([7]; 125 g ai/ha): 85 | DIGSA phytotoxicity rating (0-100 scale) ([7]; 250 g ai/ha): 99 | AMARE phytotoxicity rating (0-100 scale) ([8]; 125 g ai/ha): 100 | AMARE phytotoxicity rating (0-100 scale) ([8]; 250 g ai/ha): 100 | CASOB phytotoxicity rating (0-100 scale) ([9]; 125 g ai/ha): 65 | CASOB phytotoxicity rating (0-100 scale) ([9]; 250 g ai/ha): 85 | ABUTH phytotoxicity rating (0-100 scale) ([10]; 125 g ai/ha): 100 | ABUTH phytotoxicity rating (0-100 scale) ([10]; 250 g ai/ha): 100 | CORN crop damage, phytotoxicity rating (0-100 scale) ([11]; 125 g ai/ha): 15 | CORN crop damage, phytotoxicity rating (0-100 scale) ([11]; 250 g ai/ha): 15 | SOY crop damage, phytotoxicity rating (0-100 scale) ([12]; 125 g ai/ha): 30 | SOY crop damage, phytotoxicity rating (0-100 scale) ([12]; 250 g ai/ha): 80 | RICE crop damage, phytotoxicity rating (0-100 scale) ([13]; 125 g ai/ha): 50 | RICE crop damage, phytotoxicity rating (0-100 scale) ([13]; 250 g ai/ha): 55 | ECHCG phytotoxicity rating (0-100 scale) ([14]; 125 g ai/ha): 55 | ECHCG phytotoxicity rating (0-100 scale) ([14]; 250 g ai/ha): 80 | AMBEL phytotoxicity rating (0-100 scale) ([15]; 125 g ai/ha): 60 | AMBEL phytotoxicity rating (0-100 scale) ([15]; 250 g ai/ha): 65 | SETVI phytotoxicity rating (0-100 scale) ([16]; 125 g ai/ha): 65 | SETVI phytotoxicity rating (0-100 scale) ([16]; 250 g ai/ha): 75 | IPOHE phytotoxicity rating (0-100 scale) ([17]; 125 g ai/ha): 99 | IPOHE phytotoxicity rating (0-100 scale) ([17]; 250 g ai/ha): 99 | SORHA phytotoxicity rating (0-100 scale) ([18]; 125 g ai/ha): 0 | SORHA phytotoxicity rating (0-100 scale) ([18]; 250 g ai/ha): 25 | CHEAL phytotoxicity rating (0-100 scale) ([19]; 125 g ai/ha): 100 | CHEAL phytotoxicity rating (0-100 scale) ([19]; 250 g ai/ha): 100 | DIGSA phytotoxicity rating (0-100 scale) ([20]; 125 g ai/ha): 15 | DIGSA phytotoxicity rating (0-100 scale) ([20]; 250 g ai/ha): 30 | AMARE phytotoxicity rating (0-100 scale) ([21]; 125 g ai/ha): 100 | AMARE phytotoxicity rating (0-100 scale) ([21]; 250 g ai/ha): 100 | CASOB phytotoxicity rating (0-100 scale) ([22]; 125 g ai/ha): 65 | CASOB phytotoxicity rating (0-100 scale) ([22]; 250 g ai/ha): 65 | ABUTH phytotoxicity rating (0-100 scale) ([23]; 125 g ai/ha): 100 | ABUTH phytotoxicity rating (0-100 scale) ([23]; 250 g ai/ha): 100 | CORN crop damage, phytotoxicity rating (0-100 scale) ([24]; 125 g ai/ha): 0 | CORN crop damage, phytotoxicity rating (0-100 scale) ([24]; 250 g ai/ha): 0 | SOY crop damage, phytotoxicity rating (0-100 scale) ([25]; 125 g ai/ha): 30 | SOY crop damage, phytotoxicity rating (0-100 scale) ([25]; 250 g ai/ha): 65 | RICE crop damage, phytotoxicity rating (0-100 scale) ([26]; 125 g ai/ha): 0 | RICE crop damage, phytotoxicity rating (0-100 scale) ([26]; 250 g ai/ha): 0
